# Laboratory results from patent publication US9586928B2 (The Scripps Research Institute, priority 2011, dated 2017).
# Experiments:
# RORβ = biological target: T1, RORβ (Homo sapiens, UniProt Q92753); assay: Binding of radiolabeled T1317 to RORβ; conditions: radiolabeled compound
# T1 sequence (Q92753 1-470): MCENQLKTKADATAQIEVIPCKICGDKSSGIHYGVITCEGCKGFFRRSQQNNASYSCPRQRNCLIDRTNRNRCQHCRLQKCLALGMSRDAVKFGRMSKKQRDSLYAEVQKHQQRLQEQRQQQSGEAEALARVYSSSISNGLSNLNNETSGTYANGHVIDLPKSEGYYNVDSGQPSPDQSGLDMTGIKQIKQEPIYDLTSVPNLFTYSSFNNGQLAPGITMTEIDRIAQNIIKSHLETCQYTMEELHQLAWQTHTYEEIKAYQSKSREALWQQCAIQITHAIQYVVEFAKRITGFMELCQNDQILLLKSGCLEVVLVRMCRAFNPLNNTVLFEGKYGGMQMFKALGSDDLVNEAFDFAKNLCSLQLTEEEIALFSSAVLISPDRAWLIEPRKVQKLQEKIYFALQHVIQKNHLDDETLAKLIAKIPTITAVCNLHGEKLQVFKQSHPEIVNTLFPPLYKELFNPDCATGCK
# RORα [1] = biological target: T2, RORα (Homo sapiens, UniProt P35398); assay: Competitive radioligand binding assay on RORα; conditions: data not shown
# T2 construct: expressed in transfected cells; host or cells: HEK293T
# T2 sequence (P35398 272-510 limits assumed): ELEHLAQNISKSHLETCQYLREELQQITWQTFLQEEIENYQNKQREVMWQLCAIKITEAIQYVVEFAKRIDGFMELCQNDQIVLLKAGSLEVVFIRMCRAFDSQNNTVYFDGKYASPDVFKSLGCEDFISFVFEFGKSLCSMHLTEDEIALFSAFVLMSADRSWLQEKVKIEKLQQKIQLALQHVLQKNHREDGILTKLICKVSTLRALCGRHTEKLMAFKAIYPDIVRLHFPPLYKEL
# Excerpt: Concurrent with our characterization of SR1001, several other groups identified RORγ-specific inverse agonists. Similar to SR1001, these ligands inhibited TH17 cell development and function. […] Compounds were identified using a screening approach similar to SR1001 and a RORγ-selective inverse agonist. SR1555, was identified (FIG. 1a). Compound SR1555 is shown as compound 3 in Table 1. […] Next we examined the direct binding of SR1555 to RORα and RORγ in competitive radioligand binding assays.
# T regulatory cells = assay: T regulatory cell differentiation of splenocytes (RTPCR, Foxp3 FACS); type: cell-based, murine; conditions: 10 μM
# Procedure: Therefore, the environmental cues associated with the concentration of TGF[…] dictates the balance between TH17 and T regulatory cell differentiation. In light of the reciprocal relationship between these two cell types, we assessed whether SR1555 affected the development of T regulatory cells in vitro. Splenocytes were cultured under T regulatory cell polarizing conditions (TGFβ and IL-2) for 3 days. […] To determine whether the gene expression data would correlate with protein expression, we again cultured splenocytes for 5 days under T regulatory cell polarizing conditions in the presence of DMSO or SR1555 and examined the expression of Foxp3 by intracellular cytokine FACS analysis.
# Splenocytes were differentiated under the following conditions: iTreg-10 μg/mL anti-IFNγ, 10 μg/mL anti-IL-4, and 2 ng/mL TGFβ (R&D Systems); 20 ug/mL anti-IFNγ, 20 ug/mL anti-IL-4, 1 ng/mL TGFβ, and 10 ng/mL IL-6 (R&D Systems) for TH17 conditions. All cultures were stimulated with 1 μg/mL anti-CD3 (eBiosciences) and 1 μg/mL anti-CD28 (eBiosciences). Four to five days after activation, all cells were restimulated with 5 ng/mL phorbol-12-myristate-13-acetate (PMA) (Sigma) and 500 ng/mL ionomycin (Sigma) for 2 hours with the addition of GolgiStop (BD Bioscience) for an additional 2 hours before intracellular staining. Cells were cultured in RPMI 1640 medium (Invitrogen) with 10% FBS and antibiotics.
# (§1) RNA extraction and QRT-PCR analysis was performed as previously described.
# RORα [2] = biological target: T3, RORα (Homo sapiens, UniProt P35398); assay: IL-17 promoter luciferase reporter with full-length RORα; type: cell-based
# T3 sequence (P35398 1-523): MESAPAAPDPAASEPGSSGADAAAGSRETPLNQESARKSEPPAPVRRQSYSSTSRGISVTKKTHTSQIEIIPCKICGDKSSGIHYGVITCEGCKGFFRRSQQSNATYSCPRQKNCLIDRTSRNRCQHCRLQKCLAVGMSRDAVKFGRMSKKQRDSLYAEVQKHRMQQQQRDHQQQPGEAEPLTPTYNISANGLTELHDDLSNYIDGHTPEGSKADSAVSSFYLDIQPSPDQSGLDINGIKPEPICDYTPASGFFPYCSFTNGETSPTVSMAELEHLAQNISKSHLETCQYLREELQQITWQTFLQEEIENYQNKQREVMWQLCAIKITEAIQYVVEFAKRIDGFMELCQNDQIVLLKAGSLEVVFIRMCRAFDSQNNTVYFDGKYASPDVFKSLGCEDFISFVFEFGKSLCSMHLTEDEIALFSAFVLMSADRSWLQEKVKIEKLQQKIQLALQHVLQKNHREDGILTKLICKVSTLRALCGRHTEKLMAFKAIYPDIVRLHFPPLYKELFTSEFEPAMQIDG
# Excerpt: Since RORα and RORγ are critical regulators of IL-17 gene expression, we examined whether SR1555 would affect RORα and RORγ-dependent regulation of an IL-17 promoter driven luciferase reporter construct. HEK293 cells were transiently transfected with an IL-17 reporter, either full-length RORα or RORγ, and treated with an increasing concentration of SR1555[8]. In a dose dependent manner, SR1555 suppressed IL-17 promoter driven activity by RORγ but not RORα, further confirming that SR1555 is indeed a RORγ-specific inverse agonist (FIG. 1d). Finally, using EL4 cells, a murine thymoma which endogenously express RORα, RORγ t, and IL-17A, we examined whether SR1555 affected endogenous IL-17 gene expression. EL4 cells were treated with DMSO or SR1555 for 24 hours and analyzed for Il17a gene expression by quantitative real-time PCR.
# Cotransfection assays were performed as previously described in HEK293 cells (Gal4 cotransfection assay or IL-17 luciferase reporter)[8]. […]
# HEK293 cells were maintained in Dulbecco's modified Eagle's medium (DMEM) supplemented with 10% fetal bovine serum at 37° C. under 5% CO2. […] The luciferase levels were assayed following additional 20 hour incubation by one-step addition of BriteLite Plus (Perkin Elmer) and read using an Envision (Perkin Elmer). […]
# LXR = biological target: T4, LXR (Homo sapiens, UniProt Q13133); assay: Gal4-LXRα / UAS luciferase cotransfection assay; type: cell-based; conditions: Gal4 chimeric cotransfection
# T4 sequence (Q13133 209-447 limits assumed): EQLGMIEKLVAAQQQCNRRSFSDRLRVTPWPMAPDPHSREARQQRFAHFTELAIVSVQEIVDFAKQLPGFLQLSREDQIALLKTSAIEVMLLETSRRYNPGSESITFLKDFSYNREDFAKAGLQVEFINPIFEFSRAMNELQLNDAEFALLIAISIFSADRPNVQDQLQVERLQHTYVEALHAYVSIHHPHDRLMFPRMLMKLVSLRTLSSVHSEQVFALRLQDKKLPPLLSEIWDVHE
# FXR = biological target: T5, FXR (Homo sapiens, UniProt Q96RI1); assay: Gal4-FXR / UAS luciferase cotransfection assay; type: cell-based; conditions: Gal4 chimeric cotransfection
# T5 sequence (Q96RI1 262-486 limits assumed): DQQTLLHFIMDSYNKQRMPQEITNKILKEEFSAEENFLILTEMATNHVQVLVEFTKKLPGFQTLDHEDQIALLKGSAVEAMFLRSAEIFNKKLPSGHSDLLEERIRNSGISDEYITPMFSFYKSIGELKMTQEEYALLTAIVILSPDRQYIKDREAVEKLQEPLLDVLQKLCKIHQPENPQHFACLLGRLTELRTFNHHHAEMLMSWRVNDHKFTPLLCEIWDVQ
# EL4 cells = assay: Il17a gene expression in EL4 cells by quantitative real-time PCR; type: cell-based, murine; conditions: 10 μM, 24 hours
# Procedure: […]. Cotransfection assays were performed as previously described in HEK293 cells (Gal4 cotransfection assay or IL-17 luciferase reporter)[8]. HEK293 and the mouse lymphoma EL4 (ATCC) cells were maintained in DMEM supplemented with 10% FBS plus antibiotics (penicillin and streptomycin; Invitrogen).
# as §1
# RORα [3] = biological target: T2, RORα; assay: Gal4-RORα LBD / UAS luciferase cotransfection assay; type: cell-based; conditions: Gal4 chimeric cotransfection
# [4] = T regulatory polarizing conditions, 3 days
SMILES,binding to RORβ (RORβ),displacement of [3H]T0901317 from RORα (RORα [1]),"expression of Foxp3+ T cells (T regulatory cells; 5 days, FACS)",gene expression of Foxp3 (T regulatory cells; [4]),gene expression of Rorγt (T regulatory cells; [4]),IL-17 promoter driven activity by RORα (RORα [2]),effect on LXR activity (LXR),effect on transcriptional activity of FXR (FXR),inhibition of Il17a gene expression (EL4 cells),effect on transcriptional activity of RORα (RORα [3])
O=S(=O)(c1ccccc1)N(CC(F)(F)F)c1ccc(C(O)(C(F)(F)F)C(F)(F)F)cc1 [Compound T1317],does in fact bind to RORβ,–,–,–,–,–,–,–,–,–
CC(=O)N1CCN(Cc2ccc(-c3ccc(C(O)(C(F)(F)F)C(F)(F)F)cc3)cc2)CC1 [SR1555],–,not RORα,almost two-fold increase,effectively increased the gene expression of Foxp3,suppressing the gene expression of Rorγt,not RORα,"devoid of LXR, FXR, and RORα activity","devoid of LXR, FXR, and RORα activity",greater than 70%,"devoid of LXR, FXR, and RORα activity"
